# From ChEMBL document CHEMBL6071142, “Isoalantolactone/hydroxamic acid hybrids as potent dual STAT3/HDAC inhibitors and self-assembled nanoparticles for cancer therapy” (Eur J Med Chem, 2024)
# Activity calls are given as the source filed them. No cut-off for these calls is given here.
# Key:
# [1] = biological target: Signal transducer and activator of transcription 6 (Homo sapiens, UniProt P42226); assay: Binding affinity to STAT6 (unknown origin) assessed as dissociation constant by SPR assay
# A549 [2] = assay: Induction of apoptosis in human A549 cells at 4 uM incubated for 24 hrs by Annexin V-FITC/PI staining based flow cytometric analysis; assay type: functional
# A549 [3] = assay: In vivo antitumor activity against human A549 cells xenografted in female BALB/c nu/nu mouse assessed as reduction in tumor weight at 5 mg/kg, iv administered every 3 days for 18 days using self assembled nanoparticle as source of compound and measured every 3 days; conditions: time 3.0 day
# A549 [4] = assay: Induction of autophagy in human A549 cells transfected with mRFP-GFP-LC3 assessed as increase in red puncta at 0.5 uM incubated for 24 hrs by confocal microscopic analysis; assay type: functional, cell-based
# HepG2 [5] = assay: Antiproliferative activity against human HepG2 cells assessed as inhibition of cell proliferation incubated for 72 hrs by CCK-8 assay; assay type: functional, cell-based; conditions: HepG2, 72 h
# A549 [6] = assay: Anticancer activity against human A549 cells assessed as cell viability incubated for 72 hrs using self assembled nanoparticle as source of compound by CCK-8 assay; assay type: functional, cell-based; conditions: A549, 72 h
# [7] = Toxicity in female BALB/c nu/nu mouse xenografted with human A549 cells assessed as effect on heart at 2.5 mg/kg, iv by H and E staining based analysis; assay type: organism-based; conditions: in vivo
# A549 [8] = assay: Induction of autophagy in human A549 cells transfected with mRFP-GFP-LC3 at 0.5 uM incubated for 24 hrs by confocal microscopic analysis; assay type: functional, cell-based
# [9] = Biodistribution in liver of nude mouse xenografted with A549 cells at 5 mg/kg, iv using chlorine e6 loaded self-assembled nanoparticle as source of compound incubated for 24 hrs by ex-vivo fluorescence based LC-MS/MS analysis; assay type: ADME, organism-based
# Histone deacetylase 7 = Histone deacetylase 7 (Homo sapiens, UniProt Q8WUI4); assay: Inhibition of recombinant human HDAC7 using Boc-Lys (trifluroacetyl)-AMC as substrate preincubated with compound for 1 hr followed by substrate addition and measured after 30 mins by microplate reader assay
# A549 [10] = assay: Induction of apoptosis in human A549 cells assessed as late apoptotic cells at 2 uM incubated for 24 hrs by Annexin V-FITC/PI staining based flow cytometric analysis (reference value: 2.18%); assay type: functional
# [11] = biological target: Class 1 histone deacetylase (Homo sapiens) (UniProt Q13547+O15379+Q92769+Q9BY41); assay: Inhibition of class 1 HDAC in human A549 cells assessed as increase in […] at 0.5 uM incubated for 12 hrs by Western blot analysis; assay type: cell-based
# HCT-116 = assay: Anticancer activity against human HCT-116 cells assessed as cell viability incubated for 72 hrs using self assembled nanoparticle as source of compound by CCK-8 assay; assay type: functional, cell-based; conditions: HCT-116, 72 h
# A549 [12] = assay: Induction of autophagy in human A549 cells assessed as upregulation of LC3-II at 4 uM incubated for 12 hrs by Western blot analysis
# A549 [13] = assay: Induction of apoptosis in human A549 cells assessed as early apoptotic cells at 2 uM incubated for 24 hrs by Annexin V-FITC/PI staining based flow cytometric analysis (reference value: 1.53%); assay type: functional
# [14] = biological target: Signal transducer and activator of transcription 1-alpha/beta (Homo sapiens, UniProt P42224); assay: Binding affinity to STAT1 (unknown origin) assessed as dissociation constant by SPR assay
# [15] = Biodistribution in spleen of nude mouse xenografted with A549 cells at 5 mg/kg, iv using chlorine e6 loaded self-assembled nanoparticle as source of compound incubated for 24 hrs by ex-vivo fluorescence based LC-MS/MS analysis; assay type: ADME, organism-based
# [16] = biological target: Signal transducer and activator of transcription 5A (Homo sapiens, UniProt P42229); assay: Binding affinity to STAT5A (unknown origin) assessed as dissociation constant by SPR assay
# [17] = biological target: Polyamine deacetylase HDAC10 (Homo sapiens, UniProt Q969S8); assay: Inhibition of recombinant human HDAC10 using Boc-Lys (trifluroacetyl)-AMC as substrate preincubated with compound for 1 hr followed by substrate addition and measured after 30 mins by microplate reader assay
# [18] = biological target: T1, Signal transducer and activator of transcription 3 (Homo sapiens, UniProt P40763); assay: Inhibition of STAT3 phosphorylation in human A549 cells at 0.1 to 8 uM incubated for 12 hrs by Western blot analysis; assay type: cell-based; conditions: dose 0.1-8 µM
# [19] = Biodistribution in lung of nude mouse xenografted with A549 cells at 5 mg/kg, iv using chlorine e6 loaded self-assembled nanoparticle as source of compound incubated for 24 hrs by ex-vivo fluorescence based LC-MS/MS analysis; assay type: ADME, organism-based
# HepG2 [20] = assay: Anticancer activity against human HepG2 cells assessed as cell viability incubated for 72 hrs using self assembled nanoparticle as source of compound by CCK-8 assay; assay type: functional, cell-based; conditions: HepG2, 72 h
# A549 [21] = assay: Effect on Bcl-2 protein level in human A549 cells at 4 uM incubated for 12 hrs by Western blot analysis; assay type: functional, cell-based
# A549 [22] = assay: cells; assay type: functional, cell-based; conditions: Homo sapiens, A549, 72 h
# Description: Antiproliferative activity against human A549 cells assessed as inhibition of cell proliferation incubated for 72 hrs by CCK-8 assay
# A549 [23] = assay: Induction of autophagy in human A549 cells transfected with mRFP-GFP-LC3 assessed as decrease in P62 protein level at 0.5 uM incubated for 12 hrs by Western blot analysis; assay type: functional, cell-based
# [24] = Binding affinity to STAT2 (unknown origin) assessed as dissociation constant by SPR assay; parameters: species or system Homo sapiens
# Histone deacetylase 8 = Histone deacetylase 8 (Homo sapiens, UniProt Q9BY41); assay: Inhibition of recombinant human HDAC8 using Boc-Lys (trifluroacetyl)-AMC as substrate preincubated with compound for 1 hr followed by substrate addition and measured after 30 mins by microplate reader assay
# A549 [25] = assay: Induction of apoptosis in human A549 cells assessed as necrotic cells at 2 uM incubated for 24 hrs by Annexin V-FITC/PI staining based flow cytometric analysis (reference value: 1.20%); assay type: functional
# [26] = Toxicity in female BALB/c nu/nu mouse xenografted with human A549 cells assessed as effect on lung at 5 mg/kg, iv by H and E staining based analysis; assay type: organism-based; conditions: in vivo
# [27] = biological target: T1, Signal transducer and activator of transcription 3; assay: Binding affinity to STAT3 (unknown origin) assessed as dissociation constant by SPR assay
# [28] = Toxicity in female BALB/c nu/nu mouse xenografted with human A549 cells assessed as effect on lung at 2.5 mg/kg, iv by H and E staining based analysis; assay type: organism-based; conditions: in vivo
# HeLa = assay: cells; assay type: functional, cell-based; conditions: Homo sapiens, 72 h
# Description: Antiproliferative activity against human Hela cells assessed as inhibition of cell proliferation incubated for 72 hrs by CCK-8 assay
# A549 [29] = assay: Induction of autophagy in human A549 cells transfected with mRFP-GFP-LC3 assessed as increase in LC3-II protein level at 0.5 uM incubated for 12 hrs by Western blot analysis; assay type: functional, cell-based
# A549 [30] = assay: Induction of apoptosis in human A549 cells assessed as late apoptotic cells at 4 uM incubated for 24 hrs by Annexin V-FITC/PI staining based flow cytometric analysis (reference value: 2.18%); assay type: functional
# T1 sequence (P40763 whole entry): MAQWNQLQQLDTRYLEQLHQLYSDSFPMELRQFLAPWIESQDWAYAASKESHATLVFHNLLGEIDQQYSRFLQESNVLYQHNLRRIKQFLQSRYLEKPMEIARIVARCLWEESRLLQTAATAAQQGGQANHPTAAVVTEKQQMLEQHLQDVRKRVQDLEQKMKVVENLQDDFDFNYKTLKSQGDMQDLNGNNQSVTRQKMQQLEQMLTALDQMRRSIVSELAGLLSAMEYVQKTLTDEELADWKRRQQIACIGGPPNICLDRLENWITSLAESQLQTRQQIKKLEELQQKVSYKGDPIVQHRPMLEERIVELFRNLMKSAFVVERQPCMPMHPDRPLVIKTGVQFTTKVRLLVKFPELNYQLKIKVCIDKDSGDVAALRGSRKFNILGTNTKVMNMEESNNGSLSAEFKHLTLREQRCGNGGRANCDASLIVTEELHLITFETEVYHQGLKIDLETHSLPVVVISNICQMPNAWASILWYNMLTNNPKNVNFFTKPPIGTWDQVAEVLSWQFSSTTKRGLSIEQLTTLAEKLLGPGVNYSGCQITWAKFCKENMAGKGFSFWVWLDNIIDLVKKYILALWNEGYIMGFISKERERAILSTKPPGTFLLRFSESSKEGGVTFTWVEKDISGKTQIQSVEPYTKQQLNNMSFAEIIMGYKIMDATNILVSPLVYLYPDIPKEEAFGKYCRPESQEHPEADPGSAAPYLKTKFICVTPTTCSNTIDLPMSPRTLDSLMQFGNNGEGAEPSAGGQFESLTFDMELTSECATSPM
# Sequence of Histone deacetylase 8 (Q9BY41 whole entry): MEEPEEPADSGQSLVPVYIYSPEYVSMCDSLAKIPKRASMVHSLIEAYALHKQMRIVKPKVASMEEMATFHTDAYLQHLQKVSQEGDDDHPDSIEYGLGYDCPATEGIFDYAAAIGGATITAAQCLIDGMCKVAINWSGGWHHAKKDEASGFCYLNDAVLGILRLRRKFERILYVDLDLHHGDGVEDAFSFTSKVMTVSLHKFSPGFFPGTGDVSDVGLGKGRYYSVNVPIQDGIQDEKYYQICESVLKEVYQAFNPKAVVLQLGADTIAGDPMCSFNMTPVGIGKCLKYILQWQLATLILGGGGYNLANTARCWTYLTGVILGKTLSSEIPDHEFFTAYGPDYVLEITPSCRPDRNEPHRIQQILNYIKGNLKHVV
# Sequence of Polyamine deacetylase HDAC10 (Q969S8 whole entry): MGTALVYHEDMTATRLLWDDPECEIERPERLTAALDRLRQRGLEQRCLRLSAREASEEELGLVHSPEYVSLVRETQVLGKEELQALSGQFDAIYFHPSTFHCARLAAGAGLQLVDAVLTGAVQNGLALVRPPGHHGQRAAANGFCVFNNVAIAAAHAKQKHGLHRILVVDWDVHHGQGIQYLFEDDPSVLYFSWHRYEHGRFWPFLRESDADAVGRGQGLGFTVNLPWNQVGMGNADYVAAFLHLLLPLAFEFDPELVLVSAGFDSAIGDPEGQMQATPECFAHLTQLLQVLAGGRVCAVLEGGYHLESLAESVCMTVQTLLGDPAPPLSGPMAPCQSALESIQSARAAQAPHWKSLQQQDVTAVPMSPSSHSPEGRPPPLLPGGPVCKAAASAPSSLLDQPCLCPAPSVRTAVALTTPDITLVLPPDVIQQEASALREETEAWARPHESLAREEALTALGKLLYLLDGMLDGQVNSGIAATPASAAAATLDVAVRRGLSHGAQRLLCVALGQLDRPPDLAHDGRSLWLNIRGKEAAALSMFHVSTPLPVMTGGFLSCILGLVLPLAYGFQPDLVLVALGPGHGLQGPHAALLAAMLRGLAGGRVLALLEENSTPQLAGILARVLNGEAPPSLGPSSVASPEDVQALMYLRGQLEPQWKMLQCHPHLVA
# Sequence of Class 1 histone deacetylase (Homo sapiens) (O15379 whole entry, looked up): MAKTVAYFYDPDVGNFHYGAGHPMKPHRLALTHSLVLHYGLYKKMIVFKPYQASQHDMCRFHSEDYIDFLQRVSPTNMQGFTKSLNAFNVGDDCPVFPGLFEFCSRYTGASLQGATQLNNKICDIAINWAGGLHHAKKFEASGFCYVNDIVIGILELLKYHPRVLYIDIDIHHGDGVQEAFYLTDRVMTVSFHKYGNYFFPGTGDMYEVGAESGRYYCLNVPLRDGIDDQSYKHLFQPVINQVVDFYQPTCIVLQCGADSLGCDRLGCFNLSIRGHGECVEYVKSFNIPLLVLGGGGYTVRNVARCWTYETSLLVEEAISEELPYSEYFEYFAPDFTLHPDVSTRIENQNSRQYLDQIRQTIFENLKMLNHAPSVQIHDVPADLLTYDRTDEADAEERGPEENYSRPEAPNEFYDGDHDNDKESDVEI
# Sequence of Class 1 histone deacetylase (Homo sapiens) (Q13547 whole entry, looked up): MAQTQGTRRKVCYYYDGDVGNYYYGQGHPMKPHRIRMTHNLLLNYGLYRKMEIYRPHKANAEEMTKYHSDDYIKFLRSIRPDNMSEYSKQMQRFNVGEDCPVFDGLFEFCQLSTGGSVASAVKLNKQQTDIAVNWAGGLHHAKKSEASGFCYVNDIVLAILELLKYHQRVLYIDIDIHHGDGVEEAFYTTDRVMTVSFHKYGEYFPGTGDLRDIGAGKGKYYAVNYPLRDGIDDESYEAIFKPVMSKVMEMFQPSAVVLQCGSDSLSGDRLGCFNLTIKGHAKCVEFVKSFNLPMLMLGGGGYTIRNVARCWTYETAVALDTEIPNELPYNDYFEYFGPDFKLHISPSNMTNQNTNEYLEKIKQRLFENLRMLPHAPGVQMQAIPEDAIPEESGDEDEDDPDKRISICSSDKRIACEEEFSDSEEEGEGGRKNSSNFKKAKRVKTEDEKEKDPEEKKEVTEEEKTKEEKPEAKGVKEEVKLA
# Sequence of Class 1 histone deacetylase (Homo sapiens) (Q92769 whole entry, looked up): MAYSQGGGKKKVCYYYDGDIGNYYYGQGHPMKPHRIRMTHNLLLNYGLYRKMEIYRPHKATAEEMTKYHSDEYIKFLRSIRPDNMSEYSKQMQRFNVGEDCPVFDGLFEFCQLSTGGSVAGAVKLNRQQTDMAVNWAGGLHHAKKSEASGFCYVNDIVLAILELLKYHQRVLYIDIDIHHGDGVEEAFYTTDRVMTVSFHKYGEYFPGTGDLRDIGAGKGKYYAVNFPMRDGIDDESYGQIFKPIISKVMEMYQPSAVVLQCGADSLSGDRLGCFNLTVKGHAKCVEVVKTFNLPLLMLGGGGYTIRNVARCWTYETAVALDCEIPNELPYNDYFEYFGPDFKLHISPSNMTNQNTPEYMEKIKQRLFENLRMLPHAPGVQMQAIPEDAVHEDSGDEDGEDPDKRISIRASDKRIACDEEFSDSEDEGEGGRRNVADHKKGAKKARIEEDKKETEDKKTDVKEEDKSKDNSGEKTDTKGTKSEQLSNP
# Sequence of Class 1 histone deacetylase (Homo sapiens) (Q9BY41 whole entry, looked up): as the sequence (Q9BY41 whole entry) above
# Sequence of Signal transducer and activator of transcription 5A (P42229 whole entry): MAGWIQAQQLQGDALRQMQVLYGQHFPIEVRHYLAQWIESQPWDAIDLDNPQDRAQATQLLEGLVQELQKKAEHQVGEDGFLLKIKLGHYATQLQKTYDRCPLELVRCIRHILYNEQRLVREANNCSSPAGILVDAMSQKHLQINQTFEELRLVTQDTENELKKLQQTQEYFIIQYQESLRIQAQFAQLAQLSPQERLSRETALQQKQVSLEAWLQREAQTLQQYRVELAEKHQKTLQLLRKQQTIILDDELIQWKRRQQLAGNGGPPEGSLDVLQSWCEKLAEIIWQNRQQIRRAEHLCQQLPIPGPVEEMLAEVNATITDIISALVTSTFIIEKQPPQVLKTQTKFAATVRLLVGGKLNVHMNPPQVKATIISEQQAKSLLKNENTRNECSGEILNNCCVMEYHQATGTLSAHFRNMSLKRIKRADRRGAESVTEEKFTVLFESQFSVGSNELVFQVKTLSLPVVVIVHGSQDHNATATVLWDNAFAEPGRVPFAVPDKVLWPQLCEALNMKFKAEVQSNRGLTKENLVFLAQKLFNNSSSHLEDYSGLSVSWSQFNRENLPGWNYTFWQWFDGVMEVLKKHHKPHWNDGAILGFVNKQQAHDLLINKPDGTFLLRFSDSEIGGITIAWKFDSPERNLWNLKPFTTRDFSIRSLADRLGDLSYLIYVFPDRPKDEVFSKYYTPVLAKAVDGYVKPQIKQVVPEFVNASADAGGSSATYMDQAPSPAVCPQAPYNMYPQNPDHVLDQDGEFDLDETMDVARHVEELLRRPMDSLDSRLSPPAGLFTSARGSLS
# Sequence of Signal transducer and activator of transcription 1-alpha/beta (P42224 whole entry): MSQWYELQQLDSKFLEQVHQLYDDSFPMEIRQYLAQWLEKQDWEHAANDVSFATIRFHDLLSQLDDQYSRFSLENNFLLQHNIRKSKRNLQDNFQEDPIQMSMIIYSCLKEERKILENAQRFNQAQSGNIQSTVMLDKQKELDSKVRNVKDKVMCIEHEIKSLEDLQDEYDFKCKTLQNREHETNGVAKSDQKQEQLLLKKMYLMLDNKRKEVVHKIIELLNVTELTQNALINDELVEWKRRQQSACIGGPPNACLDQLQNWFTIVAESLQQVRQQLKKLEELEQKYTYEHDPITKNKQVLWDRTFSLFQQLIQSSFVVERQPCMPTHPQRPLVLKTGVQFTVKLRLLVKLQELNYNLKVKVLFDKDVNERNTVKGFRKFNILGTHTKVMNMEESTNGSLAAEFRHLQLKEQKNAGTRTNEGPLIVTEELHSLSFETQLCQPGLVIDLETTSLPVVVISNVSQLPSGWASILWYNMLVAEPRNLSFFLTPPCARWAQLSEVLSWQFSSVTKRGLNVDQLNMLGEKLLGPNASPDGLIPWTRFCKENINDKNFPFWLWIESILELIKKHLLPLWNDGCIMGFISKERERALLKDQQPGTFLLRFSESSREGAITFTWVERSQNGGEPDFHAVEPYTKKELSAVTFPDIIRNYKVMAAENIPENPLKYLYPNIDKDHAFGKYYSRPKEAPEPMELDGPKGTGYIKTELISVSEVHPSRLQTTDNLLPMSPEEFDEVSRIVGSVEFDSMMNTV
compound,measurement,setting,value
C=C1C(=O)O[C@@H]2C[C@@]3(C)CC[C@@H](OC(=O)[C@H](C)NC(=O)c4ccc(/C=C/C(=O)NO)cc4)C(=C)[C@@H]3C[C@H]12,Kd,[1],Not Active
same,Activity,A549 [2],40%
same,Activity,A549 [3],Active
same,Activity,A549 [4],Active
same,IC50,HepG2 [5],0.26 µM
same,IC50,A549 [6],0.069 µM
same,Activity,[7],Non-Toxic
same,Activity,A549 [8],Active
same,Drug uptake,[9],Active
same,IC50,Histone deacetylase 7,> 10 µM
same,Activity,A549 [10],11.86%
same,inhibition,[11],Active
same,IC50,HCT-116,0.023 µM
same,Activity,A549 [12],Active
same,Activity,A549 [13],4.07%
same,Kd,[14],Not Active
same,Drug uptake,[15],Active
same,Kd,[16],Not Active
same,IC50,[17],0.0574 µM
same,inhibition,[18],Active
same,Drug uptake,[19],Active
same,IC50,HepG2 [20],0.17 µM
same,Activity,A549 [21],inactive
same,IC50,A549 [22],0.12 µM
same,Activity,A549 [23],Active
same,Kd,[24],Not Active
same,IC50,Histone deacetylase 8,1.42 µM
same,Activity,A549 [25],1.59%
same,Activity,[26],Non-Toxic
same,Kd,[27],2.52 µM
same,Activity,[28],Non-Toxic
same,IC50,HeLa,0.13 µM
same,Activity,A549 [29],Active
same,Activity,A549 [30],35.53%
